The EC50 is the concentration at which the effect is half-maximal.

Experimental findings from patent publication US11701364B2, “Agonists of stimulator of interferon genes sting” (The Scripps Research Institute, priority 2018, dated 2023) are described below.

In the assay the target is T1, STING (Stimulator of Interferon Genes) (Homo sapiens, UniProt Q86WV6, G230A/H232R/R293Q/R71H).
T1 construct: host or cells: THP-1-Lucia ISG cells (human monocytic line)
In words: ISG-LUC activation assay (ISRE-Luciferase assay in THP-1 Lucia ISG reporter cells). Conditions: THP-1 Lucia ISG cells, 24 hours, luciferase reporter; read-out: ISG-LUC activation assay (EC50). The format is cell-based. From the text: This has been established using a primary assay involving a human THP-1 cell line carrying an IRF-inducible reporter with 5 copies of the IFN signaling response element. Counter screens, involving alternative reporter constructs, rodent cell-based assays, as well as cGAS and STING knock-out cell lines, are used to eliminate luciferase artifacts and ensure human-rodent cross species reactivity, as well as pathway selectivity. Biochemical assays, involving cGAS enzymatic activity and STING protein binding assays, are used to identify the specific target of identified hits.
THP-1 Lucia ISG cells were resuspended in low-serum growth media (2% FBS) at a density of 5×10^5 cells/ml and treated with test article or vehicle (DMSO). 50 μL of cells were seeded into each well of a 384-well white greiner plates and incubated for 24 hours. To evaluate expression of the luciferase reporter, 30 μl of Quanti-luc (Invivogen) detection reagent was added to each well and luminescence was read using an Envision plate reader (Perkin Elmer) set with an integration time of 0.1 seconds.

Some results are limits rather than exact numbers.

T1 sequence (Q86WV6 whole entry R71H/G230A/H232R/R293Q): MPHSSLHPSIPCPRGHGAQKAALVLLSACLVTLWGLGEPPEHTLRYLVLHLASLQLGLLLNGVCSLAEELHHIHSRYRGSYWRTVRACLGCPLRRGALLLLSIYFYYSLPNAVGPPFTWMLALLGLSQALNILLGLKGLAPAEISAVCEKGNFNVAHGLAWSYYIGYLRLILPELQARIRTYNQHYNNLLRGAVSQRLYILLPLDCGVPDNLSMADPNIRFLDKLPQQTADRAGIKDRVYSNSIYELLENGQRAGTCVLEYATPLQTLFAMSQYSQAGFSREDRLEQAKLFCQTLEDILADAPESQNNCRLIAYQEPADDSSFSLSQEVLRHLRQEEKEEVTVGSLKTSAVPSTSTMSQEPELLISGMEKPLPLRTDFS

As to `COC(=O)c1cc(C#N)cc(F)c1NC(=O)c1ccc(-n2ccnc2)nn1` [Compound 73], the EC50 was found to be 2370 nM.

As to `CCOC(=O)C1=C(NC(=O)c2ccc(-n3ccnc3)nn2)CCC1` [Compound 113], the EC50 is 18700 nM.

Take `CCOC(=O)C1=C(NC(=O)c2ccc(-n3ccnc3)nn2)C[C@@H](C)O[C@H]1C` [Compound 135]: the EC50 was found to be 12300 nM.

Turning to `O=c1oc(-c2ccc(-n3ccnc3)nn2)nc2ccc(C(F)(F)F)nc12` [Compound 140], the EC50 was around 25100 nM.

In the case of `Cc1cc2nc(-c3ccc(-n4ccnc4)nn3)oc(=O)c2cc1F` [Compound 39], the EC50 came to 30.8 nM.

In the case of `CC(C)OC(=O)c1cc(F)c(F)cc1NC(=O)c1ccc(-n2ccnc2)nn1` [Compound 24], the EC50 is 736 nM.

For `COC(=O)c1cc(C2CC2)ccc1NC(=O)c1ccc(-n2ccnc2)nn1` [Compound 32], the EC50 came to 359 nM.

For `COC(=O)c1ccc(F)c(F)c1NC(=O)c1ccc(-n2ccnc2)nn1` [Compound 18], the EC50 stood at 568 nM.

As to `O=c1oc(-c2ccc(-n3ccnc3)nn2)nc2ccc(F)c(F)c12` [Compound 132], the EC50 was found to be 4280 nM.

For the compound `CCOC(=O)c1nc(C)ccc1NC(=O)c1ccc(-n2ccnc2)nn1` [Compound 30], the EC50 is 149 nM.

As to `COC(=O)c1cc(F)c(Br)cc1NC(=O)c1ccc(-n2ccnc2)nn1` [Compound 58], the EC50 turned out to be 60.6 nM.

As for `O=c1oc(-c2ccc(-n3ccnc3)nn2)nc2ccc(S(F)(F)(F)(F)F)cc12` [Compound 161], the EC50 is above 20000 nM.

Consider `CCOC(=O)C1=C(NC(=O)c2ccc(-n3ccnc3)nn2)CCC(F)(F)C1` [Compound 131], for which the EC50 came to 3480 nM.

For `COC(=O)c1cnccc1NC(=O)c1ccc(-n2ccnc2)nn1` [Compound 108], the EC50 turned out to be 3350 nM.

Take `COC(=O)c1ccc(C(F)(F)F)cc1NC(=O)c1ccc(-n2ccnc2)nn1` [Compound 27]: the EC50 is 136 nM.

As for `CCOC(=O)C1=C(NC(=O)c2ccc(-n3ccnc3)nn2)CCOC1` [Compound 128], the EC50 stood at 4350 nM.

Regarding `N#Cc1ccc2c(=O)oc(-c3ccc(-n4ccnc4)nn3)nc2c1` [Compound 37], the EC50 is 166 nM.

For the compound `CCOC(=O)c1cc2c(nc1NC(=O)c1ccc(-n3ccnc3)nn1)CCN(C)C2` [Compound 116], the EC50 was determined as 3460 nM.

For `CCOC(=O)c1ccccc1NC(=O)c1ccc(-n2ccnc2)nn1` [Compound 64], the EC50 turned out to be 926 nM.

Regarding `COC(=O)c1ccncc1NC(=O)c1ccc(-n2ccnc2)nn1` [Compound 8], the EC50 turned out to be 2570 nM.

`O=C(Nc1ccccc1-c1noc(O)n1)c1ccc(-n2ccnc2)nn1` [Compound 118]: the 50% effective concentration (EC50) was 3970 nM.

As to `COC(=O)c1cc(Cl)ccc1NC(=O)c1ccc(-n2ccnc2)nn1` [Compound 106], the EC50 stood at 346 nM.

On to `COC(=O)c1cc(Cl)c(Br)c(F)c1NC(=O)c1ccc(-n2ccnc2)nn1` [Compound 60], for which the EC50 was 62.2 nM.

For the compound `COC(=O)c1c(F)ccc(F)c1NC(=O)c1ccc(-n2ccnc2)nn1` [Compound 3], the EC50 was 10200 nM.

In the case of `O=C(Nc1cc(C(F)(F)F)ccc1C(=O)O)c1ccc(-n2ccnc2)nn1` [Compound 86], the EC50 is 10300 nM.

In the case of `O=c1[nH]c(-c2ccc(-n3ccnc3)nn2)nc2cc(F)c(F)cc12` [Compound 126], the EC50 stood at 1120 nM.

On to `O=C(Nc1ccc2ccccc2c1C(O)(C(F)(F)F)C(F)(F)F)c1ccc(-n2ccnc2)nn1` [Compound 121], for which the EC50 was 1830 nM.

For the compound `COc1ccc2nc(-c3ccc(-n4ccnc4)nn3)oc(=O)c2c1` [Compound 40], the EC50 is 684 nM.

With `CC(C)COC(=O)c1ccccc1NC(=O)c1ccc(-n2ccnc2)nn1` [Compound 22], the EC50 stood at 895 nM.

As to `COC(=O)c1nc(OC)ccc1NC(=O)c1ccc(-n2ccnc2)nn1` [Compound 74], the EC50 stood at 1360 nM.

As to `COC(=O)c1cc(NC(=O)c2ccc(-n3ccnc3)nn2)cc(F)c1F` [Compound 10], the EC50 is 468 nM.

Regarding `COC(=O)c1cc2ccccc2cc1NC(=O)c1ccc(-n2ccnc2)nn1` [Compound 23], the EC50 stood at 56.1 nM.

Take `COC(=O)c1ccc(OC)cc1NC(=O)c1ccc(-n2ccnc2)nn1` [Compound 105]: the EC50 was 192 nM.

In the case of `O=C(Nc1cc(F)c(F)cc1C(=O)NC1CCC(O)(C(F)(F)F)CC1)c1ccc(-n2ccnc2)nn1` (stereo not shown) [Compound 88], the EC50 was 5240 nM.

Turning to `O=c1oc(-c2ccc(-n3ccnc3)nn2)nc2ccc(OC(F)(F)F)cc12` [Compound 41], the EC50 is 176 nM.

In the case of `COC(=O)c1cc2[nH]ncc2cc1NC(=O)c1ccc(-n2ccnc2)nn1` [Compound 117], the EC50 is around 2570 nM.

As for `COCC(=O)c1nc(Cl)ncc1NC(=O)c1ccc(-n2ccnc2)nn1` [Compound 75], the EC50 was determined as 1260 nM.

For the compound `O=C(Nc1ccc(F)cc1C(=O)O)c1ccc(-n2ccnc2)nn1` [Compound 158], the EC50 is above 20000 nM.

Turning to `Nc1cc(F)c(F)cc1NC(=O)c1ccc(-n2ccnc2)nn1` [Compound 144], the EC50 was above 50000 nM.

`Cc1cc(C(N)=O)c(NC(=O)c2ccc(-n3ccnc3)nn2)cc1F` [Compound 134]: the EC50 is above 50000 nM.

Take `O=C(Nc1cc(F)c(OC(F)(F)F)cc1C(=O)O)c1ccc(-n2ccnc2)nn1` [Compound 146]: the EC50 was 2180 nM.

As for `COC(=O)c1cc(C(F)(F)F)cc(F)c1NC(=O)c1ccc(-n2ccnc2)nn1` [Compound 48], the EC50 turned out to be 475 nM.

Regarding `O=C(O)C1=C(NC(=O)c2ccc(-n3ccnc3)nn2)CCCC1` [Compound 130], the EC50 was determined as 14800 nM.

In the case of `O=C(Nc1ccc(Cl)cc1C(=O)O)c1ccc(-n2ccnc2)nn1` [Compound 83], the EC50 was above 20000 nM.

`CCOC(=O)C1=C(NC(=O)c2ccc(-n3ccnc3)nn2)CCCC1` [Compound 112]: the EC50 turned out to be 1500 nM.

For `COC(=O)c1nc(OC)ncc1NC(=O)c1ccc(-n2ccnc2)nn1` [Compound 71], the EC50 is 1660 nM.

With `CCOC(=O)C1=C(NC(=O)c2ccc(-n3ccnc3)nn2)CCC(C)C1` (stereo not shown) [Compound 67], the EC50 was 2950 nM.

For the compound `COC(=O)c1ccc(Cl)cc1NC(=O)c1ccc(-n2ccnc2)nn1` [Compound 17], the EC50 worked out at 312 nM.

As for `Cc1cc(NC(=O)c2ccc(-n3ccnc3)nn2)c(C(N)=O)cc1C` [Compound 125], the EC50 turned out to be 9620 nM.

Turning to `COC(=O)c1cc(OC)c(Cl)cc1NC(=O)c1ccc(-n2ccnc2)nn1` [Compound 57], the EC50 was below 19.5 nM.

With `COC(=O)c1c(F)cc(F)cc1NC(=O)c1ccc(-n2ccnc2)nn1` [Compound 51], the EC50 was 198 nM.

As to `COC(=O)c1nc(OC)cnc1NC(=O)c1ccc(-n2ccnc2)nn1` [Compound 166], the EC50 is 12100 nM.

Regarding `COC(=O)c1ccc(C)c(C)c1NC(=O)c1ccc(-n2ccnc2)nn1` [Compound 6], the EC50 was around 2760 nM.

Turning to `CCc1ccc(NC(=O)c2ccc(-n3ccnc3)nn2)c(C(=O)OC(C)C)c1` [Compound 65], the EC50 came out at 1160 nM.

Regarding `Cn1ncc2cc(C(=O)O)c(NC(=O)c3ccc(-n4ccnc4)nn3)cc21` [Compound 167], the EC50 worked out at 14900 nM.

On to `Cc1cc(C(=O)O)c(NC(=O)c2ccc(-n3ccnc3)nn2)cc1F` [Compound 172], for which the EC50 came out at 1010 nM.

For `COC(=O)c1cccc(F)c1NC(=O)c1ccc(-n2ccnc2)nn1` [Compound 156], the EC50 is above 50000 nM.

`CCN(CC)CCOC(=O)c1cc(F)c(F)cc1NC(=O)c1ccc(-n2ccnc2)nn1` [Compound 68]: the EC50 was 1810 nM.

For the compound `O=c1oc(-c2ccc(-n3ccnc3)nn2)nc2cc3c(cc12)OC(F)(F)O3` [Compound 141], the EC50 was above 50000 nM.

On to `COC(=O)c1cccc(Cl)c1NC(=O)c1ccc(-n2ccnc2)nn1` [Compound 96], for which the EC50 stood at 21100 nM.

Take `CCOC(=O)C1=C(NC(=O)c2ccc(-n3ccnc3)nn2)C2CCC1O2` (stereo not shown) [Compound 155]: the EC50 was above 50000 nM.

`COC(=O)c1cc(C#N)ccc1NC(=O)c1ccc(-n2ccnc2)nn1` [Compound 49]: the EC50 is 588 nM.

Take `Cc1cc(NC(=O)c2ccc(-n3ccnc3)nn2)c(C(=O)OCCCCO)cc1C` [Compound 46]: the EC50 worked out at 418 nM.

For `O=C(Nc1ccc(C2CC2)cc1C(=O)O)c1ccc(-n2ccnc2)nn1` [Compound 85], the EC50 was around 16600 nM.

Turning to `COC(=O)c1cc(F)c(OC)cc1NC(=O)c1ccc(-n2ccnc2)nn1` [Compound 52], the EC50 came out at 74.4 nM.

Consider `O=C(Nc1cc(F)ccc1C(=O)O)c1ccc(-n2ccnc2)nn1` [Compound 169], for which the EC50 amounted to 12600 nM.

`COc1cc(C(=O)O)c(NC(=O)c2ccc(-n3ccnc3)nn2)cc1F` [Compound 170]: the concentration giving a half-maximal response (EC50) was 11000 nM.

Consider `COC(=O)c1cc(C(F)(F)F)c(F)cc1NC(=O)c1ccc(-n2ccnc2)nn1` [Compound 70], for which the half-maximal effective concentration (EC50) amounted to 1720 nM.

For the compound `COC(=O)c1ccc(F)cc1NC(=O)c1ccc(-n2ccnc2)nn1` [Compound 16], the EC50 came to 684 nM.

For the compound `COC(=O)c1ccc(C)cc1NC(=O)c1ccc(-n2ccnc2)nn1` [Compound 15], the EC50 turned out to be 294 nM.

In the case of `COC(=O)c1ccc(C(=O)OC)c(NC(=O)c2ccc(-n3ccnc3)nn2)c1` [Compound 159], the EC50 was above 20000 nM.

As for `Cc1cc(NC(=O)c2ccc(-n3ccnc3)nn2)c(C(=O)O)cc1C` [Compound 111], the half-maximal effective concentration (EC50) came to 7250 nM.

In the case of `COC(=O)c1cc2cnn(C)c2cc1NC(=O)c1ccc(-n2ccnc2)nn1` [Compound 45], the EC50 was 126 nM.
